The nature of data set [1]: Kinetic solubility in two aqueous media (FaSSIF pH 6.5 + 1% PVPVA; FeSSIF pH 5.0 + 1% PVPVA). The following applies: for Solubility compared to the ABX464 crystalline Form I: FaSSIF and FeSSIF media (+ 1% PVPVA), at each time; for Kinetic solubility: room temperature, 2 mg/ml equivalent ABX464 target.
Protocol: (§1) These two specific aqueous media are more particularly: • FaSSIF (namely Fasted State Simulated Intestinal Fluid) pH=6.5+1% by weight of PVPVA (polyvinyl pyrrolidone-vinyl acetate: a precipitation inhibitor); and • FeSSIF (namely Fed State Simulated Intestinal Fluid) pH=5.0+1% by weight of PVPVA (a precipitation inhibitor)
(§2) To make 5 mL of FeSSIF the steps were as follows: • weighing 56.0 mg of SIF Powder, adding 350 μl of FeSSIF Buffer Concentrate then making up to 5.0 mL with ultrapurified water; and adding 1% w/w PVPVA.
The nature of data set [2]: Two-steps Dissolution/Precipitation in vitro Human Fasted model (gastric then intestinal compartment). Type of data set: physicochemical. The note with it: for Crystalline phase conversion as detected by XRPD: solid residues collected in the fasted Dissolution/Precipitation test. Here is the method:
Samples were analysed by HPLC-UV according to the following method: • Instrument: Agilent 1200 and 1100 with PDA detector • Column: Waters XTerra MS C18 3.5 μm 4.6×50 mm • Flow rate: 1.5 ml/min • UV detection: 220 nm, 270 nm, 290 nm • Column temperature: 40° C. • Injection volume: 1 μl • Mobile phase: gradient with solutions A and B prepared according to the following: • Eluent A: Ultrapurified water adjusted to pH2 with orthophosphoric acid 85% • Eluent B: Acetonitrile
The ABX464 crystalline Form I, and anhydrous ABX464 hemi-Napadisylate salt have been evaluated in the Two-steps Dissolution/Precipitation in vitro Human model.
The model consists in the following steps: • Dispensing selected material in Fasted simulated gastric medium containing 1% w PVPVA (inhibitor of precipitation) and then after 30 min, • Diluting obtained suspension by simulated Fasted intestinal medium.
Using this model, the dissolution of selected materials (ABX464 crystalline Form I, or anhydrous BX464 hemi-Napadisylate salt) in gastric medium and the risk of precipitation of the API (Active Pharmaceutical Ingredient) in intestinal compartment is evaluated.
The crystalline nature of solid residues collected by end of each steps (Gastric and Intestinal) have been determined by XRPD after centrifugation (15 min at 18000 rpm).
Protocol for Dissolution/Precipitation Model in Human Fasted Conditions • In 6 different vials, 4.0 mg equivalent ABX464 of selected material are weighed • Solubility measurement in the gastric compartment (also named G) after 15 min (G15 min) and after 30 min (G30 min) which comprises the following steps: • Adding 1 mL of FaSSGF pH 1.2 medium containing 1% w PVPVA (ABX464 target concentration=4 mg/ml) on the 6 vials, • Mixing with a vortex at 37° C. • At times 15 min and 30 min, considering one vial (vials labelled G15 min and G30 min respectively) and for each vials • noting the aspect of suspension, • centrifuging 5 min at 18000 rpm and filtering on a 0.45 μm filter (filter Millex LCR Ref. SLCR0,13NK). • Measuring the pH of supernatant, • Dosing ABX464 soluble fraction by HPLC, • Recording XPRD pattern on the final time point sample. • Solubility measurement in the intestinal compartment (also named I) after 15 min (vial I 15 min), 30 min (vial I 30 min), 60 min (vial I 60 min) and 120 min (vial I 120 min) which comprises the following steps: • Adding 1 mL of FaSSIF ×2 pH 6.5 medium/sodium bicarbonate 90/10) on the 4 remaining vials (ABX464 target concentration=2 mg/ml) • Mixing with a Vortex at 37° C. • At times 15 min, 30 min, 60 min and 120 min, considering one vial (vials labelled I 15 min, I 30 min, I 60 min and I 120 min respectively) and for each vials • noting the aspect of suspension • Centrifuging 5 min at 18000 rpm and filtering on a 0.45 μm filter (filter Millex LCR Ref. SLCR0,13NK). • Measuring the pH of supernatant • Dosing ABX464 soluble fraction by HPLC • Recording XPRD pattern on the final time point sample.
Composition and preparation of biorelevant media in Fasted conditions (see tables 11 and 12): • Fasted Gastric medium=FaSSGF pH=1.2/1% PVPVA w/v
• Fasted Intestinal medium (FaSSIF X2 pH=6.5/Sodium Bicarbonate at 80 g/l 90/10 v/v) Composition/Preparation of FaSSIF ×2 (medium concentrated 2 times to take into account the dilution in the Fasted model):
The FaSSIF X2/Sodium Bicarbonate 80 g/l (90/10; v/v) mixture was prepared to keep pH equal to 6.5 in the intestinal compartment after dilution.

A further data set is described as follows: physchem. The note with it: thermodynamic from solid.
Setting [3] is: FaSSIF pH 6.5 + 1% PVPVA, pH 6.5, aqueous with cosolvent or surfactant or cyclodextrin.
The mark [4] stands for this setting: FeSSIF + 1% PVPVA, pH 5, aqueous with cosolvent or surfactant or cyclodextrin.
The mark [5] stands for this setting: FeSSIF pH 5 + 1% PVPVA, pH 5, aqueous with cosolvent or surfactant or cyclodextrin.

≈ marks a conversion by molar mass, not a printed value. Read-outs that look alike come from different tables or passages of the source.

Protocol for physchem: as §1, §2

Take `FC(F)(F)Oc1ccc(Nc2ccc3cccc(Cl)c3n2)cc1.FC(F)(F)Oc1ccc(Nc2ccc3cccc(Cl)c3n2)cc1.O=S(=O)(O)c1cccc2c(S(=O)(=O)O)cccc12` [anhydrous ABX464 hemi-Napadisylate salt]: the “Solubility compared to the ABX464 crystalline Form I” value in data set [1] is on record as “higher solubility”; in data set [1] (listed as ABX464 hemi-Napadisylate salt), “significant higher solubility”. For the same molecule, the Kinetic solubility in data set [1] (FassiF pH 6.5 + 1% PVPVA, sampling time 5 min) worked out at 70 µg/mL; in data set [1] (FassiF pH 6.5 + 1% PVPVA, sampling time 30 min) it was 116 µg/mL; in data set [1] (FassiF pH 6.5 + 1% PVPVA, sampling time 2 h) it was 149 µg/mL; in data set [1] (FassiF pH 6.5 + 1% PVPVA, sampling time 4 h), 206 µg/mL; in data set [1] (FassiF pH 6.5 + 1% PVPVA, sampling time 24 h) it was 432 µg/mL; in data set [1] (FessiF pH 5 + 1% PVPVA, sampling time 5 min) it was 396 µg/mL. Further, the Kinetic solubility in data set [1] (FessiF pH 5 + 1% PVPVA, sampling time 30 min) is 782 µg/mL; in data set [1] (FessiF pH 5 + 1% PVPVA, sampling time 2 h), 1053 µg/mL; in data set [1] (FessiF pH 5 + 1% PVPVA, sampling time 4 h), 1055 µg/mL; in data set [1] (FessiF pH 5 + 1% PVPVA, sampling time 24 h) it was 1517 µg/mL. In data set [1] (FeSSIF + 1% PVPVA medium, at 2 h), the “Solubility, plateau” value is around 1050 µg/mL. Besides, the solubility in data set [1] (FeSSIF + 1% PVPVA medium, at 24 h) was around 1520 µg/mL. Moreover, the Soluble fraction was 0.05 mg/mL in data set [2] (gastric compartment, vial G 15 min, FaSSGF pH 1.2 + 1% PVPVA, 37° C., target about 4 mg/ml); 0.06 mg/mL in data set [2] (gastric compartment, vial G 30 min, FaSSGF pH 1.2 + 1% PVPVA, 37° C., target about 4 mg/ml); 0.17 mg/mL in data set [2] (intestinal compartment, vial I 15 min (45 min total), FaSSIF x2 pH 6.5/sodium bicarbonate 90/10 added, 37° C., target about 2 mg/ml); 0.23 mg/mL in data set [2] (intestinal compartment, vial I 30 min (60 min total), FaSSIF x2 pH 6.5/sodium bicarbonate 90/10 added, 37° C., target about 2 mg/ml); 0.32 mg/mL in data set [2] (intestinal compartment, vial I 60 min (90 min total), FaSSIF x2 pH 6.5/sodium bicarbonate 90/10 added, 37° C., target about 2 mg/ml); 0.43 mg/mL in data set [2] (intestinal compartment, vial I 120 min (150 min total), FaSSIF x2 pH 6.5/sodium bicarbonate 90/10 added, 37° C., target about 2 mg/ml). The “Solubility (ABX464 soluble fraction) in the intestinal compartment” value in data set [2] (intestinal compartment at pH 6.5 of the fasted human in vitro model) was around 430 µg/mL. Moreover, in data set [2] (intestinal compartment), the “Crystalline phase conversion as detected by XRPD” value is recorded as “no crystalline phase conversion”.

`FC(F)(F)Oc1ccc(Nc2ccc3cccc(Cl)c3n2)cc1` [ABX464 crystalline Form I, 8-chloro-N-(4-(trifluoromethoxy)phenyl)quinolin-2-amine]: in the data set “physchem” (setting [3]), the kinetic solubility (commonly solubility judged after dilution from a stock solution rather than from solid) at 5 min was found to be 6 µg/mL, the kinetic solubility at 30 min was 22 µg/mL, the solubility (kinetic) at 2 h came to 47 µg/mL and the kinetic solubility at 4 h worked out at 62 µg/mL. Also, the kinetic solubility at 24 h in the data set “physchem” (setting [3]) is 72 µg/mL. Moreover, in the data set “physchem” (setting [4]), the solubility at 2 h is around 300 µg/mL and the solubility at 24 h is around 420 µg/mL. Also, in “physchem” (setting [5]), the kinetic solubility at 5 min was determined as 54 µg/mL, the solubility (kinetic) at 30 min worked out at 153 µg/mL, the solubility (kinetic) at 2 h turned out to be 297 µg/mL and the kinetic solubility at 4 h stood at 358 µg/mL. Also, the solubility (kinetic) at 24 h in “physchem” (setting [5]) is 419 µg/mL. Further, the solubility at 15 min in data set [2] (37 °C, pH 1.2, fassgf or other biorelevant, thermodynamic from solid, gastric compartment, vial G 15 min, FaSSGF pH 1.2 + 1% PVPVA, 37° C., target about 4 mg/ml, read-out: Soluble fraction) is 60 µg/mL. In addition, the solubility at 30 min in data set [2] (37 °C, pH 1.2, fassgf or other biorelevant, thermodynamic from solid, gastric compartment, vial G 30 min, FaSSGF pH 1.2 + 1% PVPVA, 37° C., target about 4 mg/ml, read-out: Soluble fraction) is 70 µg/mL. Moreover, the solubility in data set [2] (37 °C, pH 6.5, fassif, thermodynamic from solid, intestinal compartment at pH 6.5 of the fasted human in vitro model, read-out: Solubility (ABX464 soluble fraction) in the intestinal compartment) was around 80 µg/mL (≈ 236 µM). Also, the solubility at 15 min in data set [2] (37 °C, pH 6.5, fassif, thermodynamic from solid, intestinal compartment, vial I 15 min (45 min total), FaSSIF x2 pH 6.5/sodium bicarbonate 90/10 added, 37° C., target about 2 mg/ml, read-out: Soluble fraction) was determined as 60 µg/mL (≈ 177 µM). The solubility at 30 min in data set [2] (37 °C, pH 6.5, fassif, thermodynamic from solid, intestinal compartment, vial I 30 min (60 min total), FaSSIF x2 pH 6.5/sodium bicarbonate 90/10 added, 37° C., target about 2 mg/ml, read-out: Soluble fraction) is 70 µg/mL (≈ 207 µM). The solubility at 60 min in data set [2] (37 °C, pH 6.5, fassif, thermodynamic from solid, intestinal compartment, vial I 60 min (90 min total), FaSSIF x2 pH 6.5/sodium bicarbonate 90/10 added, 37° C., target about 2 mg/ml, read-out: Soluble fraction) came to 70 µg/mL (≈ 207 µM). Further, the solubility at 120 min in data set [2] (37 °C, pH 6.5, fassif, thermodynamic from solid, intestinal compartment, vial I 120 min (150 min total), FaSSIF x2 pH 6.5/sodium bicarbonate 90/10 added, 37° C., target about 2 mg/ml, read-out: Soluble fraction) turned out to be 80 µg/mL (≈ 236 µM). Besides, the “Crystalline phase conversion as detected by XRPD” value in data set [2] (intestinal compartment) was “no crystalline phase conversion”.

The values above are taken from patent publication US20230067676A1, “CO-CRYSTALS AND SALTS OF 8-CHLORO-N-(4-(TRIFLUOROMETHOXY)PHENYL)QUINOLIN-2-AMINE” (ABIVAX, priority 2020, published 2023).
